Values of other authors in patent US9993449B2, “(S)-3-amino-4-(difluoromethylenyl)cyclopent-1-ene-1-carboxylic acid, and related compounds as GABA aminotransferase inactivators for the treatment of epilepsy, addiction and hepatocellular carcinoma” (NORTHWESTERN UNIVERSITY, priority 2015, dated 2018).

Experiments:
[1] = system: release of dopamine in the NAcc; conditions: freely moving rats after 20 mg/kg cocaine; cited from earlier work
hERG channel = target: T1, hERG channel (Homo sapiens, UniProt Q12809); conditions: earlier finding for CPP-115; cited from earlier work
T1 construct: host or cells: CHO-K1
T1 sequence (Q12809 whole entry): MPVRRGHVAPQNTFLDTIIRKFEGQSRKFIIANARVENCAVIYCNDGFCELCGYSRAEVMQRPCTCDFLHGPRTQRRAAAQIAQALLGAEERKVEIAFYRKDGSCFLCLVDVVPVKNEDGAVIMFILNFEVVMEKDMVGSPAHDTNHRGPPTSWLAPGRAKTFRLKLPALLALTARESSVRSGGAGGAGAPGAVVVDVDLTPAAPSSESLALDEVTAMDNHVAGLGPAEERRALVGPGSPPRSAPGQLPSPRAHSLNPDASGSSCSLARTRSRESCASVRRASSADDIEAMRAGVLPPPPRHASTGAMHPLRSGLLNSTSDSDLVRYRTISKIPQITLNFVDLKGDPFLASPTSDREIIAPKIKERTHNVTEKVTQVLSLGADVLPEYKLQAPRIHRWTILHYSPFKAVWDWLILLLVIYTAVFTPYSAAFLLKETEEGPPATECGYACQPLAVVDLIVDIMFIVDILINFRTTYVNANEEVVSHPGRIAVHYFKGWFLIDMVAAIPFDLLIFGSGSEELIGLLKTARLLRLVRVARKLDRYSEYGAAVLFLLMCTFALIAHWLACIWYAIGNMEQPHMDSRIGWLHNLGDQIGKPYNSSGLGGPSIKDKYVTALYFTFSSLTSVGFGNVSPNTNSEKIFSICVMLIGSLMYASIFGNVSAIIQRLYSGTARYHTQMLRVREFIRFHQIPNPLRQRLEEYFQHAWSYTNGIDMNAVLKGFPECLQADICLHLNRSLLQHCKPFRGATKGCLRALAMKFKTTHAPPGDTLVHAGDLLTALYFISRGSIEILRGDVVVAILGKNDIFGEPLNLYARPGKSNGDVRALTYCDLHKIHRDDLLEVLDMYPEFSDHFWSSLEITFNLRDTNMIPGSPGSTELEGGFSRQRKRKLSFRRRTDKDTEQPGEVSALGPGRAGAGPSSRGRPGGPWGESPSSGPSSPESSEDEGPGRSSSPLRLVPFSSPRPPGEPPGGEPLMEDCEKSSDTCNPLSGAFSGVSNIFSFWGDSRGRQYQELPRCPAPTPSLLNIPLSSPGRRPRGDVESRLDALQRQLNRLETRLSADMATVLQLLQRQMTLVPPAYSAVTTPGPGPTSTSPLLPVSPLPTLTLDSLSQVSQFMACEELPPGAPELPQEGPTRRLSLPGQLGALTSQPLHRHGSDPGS

[2] = system: aspartate aminotransferase (Asp-AT); conditions: reported; cited from earlier work
CYP2C19 = target: T2, CYP2C19 (Homo sapiens, UniProt P33261); conditions: earlier finding for CPP-115; cited from earlier work
T2 construct: tissue Eurofins Panlabs; host or cells: human liver microsomes
T2 sequence (P33261 whole entry): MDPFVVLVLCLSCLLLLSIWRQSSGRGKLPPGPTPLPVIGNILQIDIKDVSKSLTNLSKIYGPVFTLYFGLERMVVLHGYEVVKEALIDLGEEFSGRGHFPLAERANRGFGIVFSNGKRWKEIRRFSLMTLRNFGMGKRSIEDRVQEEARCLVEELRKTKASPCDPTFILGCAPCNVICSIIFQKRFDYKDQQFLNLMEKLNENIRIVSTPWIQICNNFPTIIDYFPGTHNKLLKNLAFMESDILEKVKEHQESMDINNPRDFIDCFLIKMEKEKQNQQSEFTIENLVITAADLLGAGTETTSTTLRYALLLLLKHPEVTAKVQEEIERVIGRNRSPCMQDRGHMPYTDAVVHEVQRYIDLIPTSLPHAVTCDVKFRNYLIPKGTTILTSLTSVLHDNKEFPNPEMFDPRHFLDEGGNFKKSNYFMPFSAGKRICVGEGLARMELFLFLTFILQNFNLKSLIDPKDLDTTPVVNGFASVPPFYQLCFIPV

[3] = target: T3, ornithine aminotransferase (OAT) (Homo sapiens, UniProt P04181); conditions: reported; cited from earlier work
T3 sequence (P04181 26-439): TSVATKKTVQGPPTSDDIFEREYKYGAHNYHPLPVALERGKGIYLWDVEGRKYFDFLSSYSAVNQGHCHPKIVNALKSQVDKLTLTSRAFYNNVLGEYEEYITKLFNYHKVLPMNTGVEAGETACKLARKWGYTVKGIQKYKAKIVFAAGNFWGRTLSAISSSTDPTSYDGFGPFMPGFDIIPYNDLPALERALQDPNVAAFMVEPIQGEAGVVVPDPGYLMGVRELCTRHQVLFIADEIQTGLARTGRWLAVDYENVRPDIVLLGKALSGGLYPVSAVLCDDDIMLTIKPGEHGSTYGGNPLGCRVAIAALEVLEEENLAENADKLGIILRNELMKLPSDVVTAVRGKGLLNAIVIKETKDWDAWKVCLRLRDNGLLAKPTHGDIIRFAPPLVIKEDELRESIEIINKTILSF

striatal dopamine levels = conditions: previous similar tests; cited from earlier work
CYP2C8 = target: T4, CYP2C8 (Homo sapiens, UniProt P10632); conditions: earlier finding for CPP-115; cited from earlier work
T4 construct: tissue Eurofins Panlabs; host or cells: human liver microsomes
T4 sequence (P10632 1-490): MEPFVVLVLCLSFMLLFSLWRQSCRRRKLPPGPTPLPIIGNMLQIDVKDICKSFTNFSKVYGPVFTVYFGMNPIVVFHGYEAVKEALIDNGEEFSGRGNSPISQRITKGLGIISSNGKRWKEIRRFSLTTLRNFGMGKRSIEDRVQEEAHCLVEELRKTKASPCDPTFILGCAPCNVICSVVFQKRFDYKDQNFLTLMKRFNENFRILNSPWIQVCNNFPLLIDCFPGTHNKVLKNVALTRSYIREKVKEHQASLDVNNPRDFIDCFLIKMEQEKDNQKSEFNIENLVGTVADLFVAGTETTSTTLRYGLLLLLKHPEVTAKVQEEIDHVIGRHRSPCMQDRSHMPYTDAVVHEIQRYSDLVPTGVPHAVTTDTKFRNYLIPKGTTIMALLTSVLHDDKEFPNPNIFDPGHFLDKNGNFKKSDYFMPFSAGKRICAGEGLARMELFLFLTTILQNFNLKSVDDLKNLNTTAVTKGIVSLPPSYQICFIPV

CYP1A = target: T5, CYP1A (Homo sapiens, UniProt P05177); conditions: earlier finding for CPP-115; cited from earlier work
T5 construct: tissue Eurofins Panlabs; host or cells: human liver microsomes
T5 sequence (P05177 1-516): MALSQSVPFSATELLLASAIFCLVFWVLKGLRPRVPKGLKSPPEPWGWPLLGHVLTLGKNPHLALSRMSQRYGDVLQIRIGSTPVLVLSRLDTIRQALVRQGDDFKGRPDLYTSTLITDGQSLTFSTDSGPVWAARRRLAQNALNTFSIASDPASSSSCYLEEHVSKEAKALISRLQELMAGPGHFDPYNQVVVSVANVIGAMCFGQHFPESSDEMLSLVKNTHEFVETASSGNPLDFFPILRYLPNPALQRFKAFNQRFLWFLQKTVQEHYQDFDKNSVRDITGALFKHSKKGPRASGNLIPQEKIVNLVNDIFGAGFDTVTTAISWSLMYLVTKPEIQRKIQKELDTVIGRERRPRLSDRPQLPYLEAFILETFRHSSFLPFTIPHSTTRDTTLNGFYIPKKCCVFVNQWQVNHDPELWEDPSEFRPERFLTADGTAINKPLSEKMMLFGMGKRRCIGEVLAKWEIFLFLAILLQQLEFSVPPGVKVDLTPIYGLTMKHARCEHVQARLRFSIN

infantile spasms = conditions: multiple-hit rat model; cited from earlier work
[4] = system: alanine aminotransferase (Ala-AT); conditions: reported; cited from earlier work
CYP2D6 = target: T6, CYP2D6 (Homo sapiens, UniProt P10635); conditions: earlier finding for CPP-115; cited from earlier work
T6 construct: tissue Eurofins Panlabs; host or cells: human liver microsomes
T6 sequence (P10635 whole entry): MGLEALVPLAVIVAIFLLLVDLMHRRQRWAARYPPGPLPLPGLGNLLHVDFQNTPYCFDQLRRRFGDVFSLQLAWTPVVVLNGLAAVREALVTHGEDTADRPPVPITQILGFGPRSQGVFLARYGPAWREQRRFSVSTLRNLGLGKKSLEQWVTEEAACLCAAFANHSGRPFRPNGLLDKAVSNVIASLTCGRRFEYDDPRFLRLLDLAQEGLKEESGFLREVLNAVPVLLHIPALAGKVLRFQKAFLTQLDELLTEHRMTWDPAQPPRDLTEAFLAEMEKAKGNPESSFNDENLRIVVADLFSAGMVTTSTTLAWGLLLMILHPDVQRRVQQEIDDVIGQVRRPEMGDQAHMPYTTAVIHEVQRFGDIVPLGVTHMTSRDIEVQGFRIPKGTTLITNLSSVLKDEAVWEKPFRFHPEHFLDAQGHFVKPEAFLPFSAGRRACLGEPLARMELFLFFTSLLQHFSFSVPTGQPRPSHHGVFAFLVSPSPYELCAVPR

CYP2B6 = target: T7, CYP2B6 (Homo sapiens, UniProt P20813); conditions: earlier finding for CPP-115; cited from earlier work
T7 construct: tissue Eurofins Panlabs; host or cells: human liver microsomes
T7 sequence (P20813 1-491): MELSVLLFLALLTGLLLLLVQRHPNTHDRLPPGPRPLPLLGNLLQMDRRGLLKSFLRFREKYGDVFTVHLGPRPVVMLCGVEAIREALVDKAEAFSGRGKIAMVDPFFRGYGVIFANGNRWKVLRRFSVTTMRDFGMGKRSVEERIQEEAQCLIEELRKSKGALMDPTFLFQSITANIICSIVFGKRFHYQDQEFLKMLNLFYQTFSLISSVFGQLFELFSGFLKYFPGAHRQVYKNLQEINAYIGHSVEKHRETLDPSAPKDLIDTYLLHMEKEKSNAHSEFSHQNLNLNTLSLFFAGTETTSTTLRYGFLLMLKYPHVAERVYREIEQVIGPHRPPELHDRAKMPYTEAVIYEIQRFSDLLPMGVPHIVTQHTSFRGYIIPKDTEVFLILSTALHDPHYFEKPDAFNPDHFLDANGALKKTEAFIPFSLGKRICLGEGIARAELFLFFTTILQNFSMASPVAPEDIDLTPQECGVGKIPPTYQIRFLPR

[5] = system: glucose metabolism in the hippocampus; conditions: previous similar tests; cited from earlier work
CYP3A = conditions: earlier finding for CPP-115; cited from earlier work
[6] = in vivo; cited from earlier work
CYP2C9 = target: T8, CYP2C9 (Homo sapiens, UniProt P11712); conditions: earlier finding for CPP-115; cited from earlier work
T8 construct: tissue Eurofins Panlabs; host or cells: human liver microsomes
T8 sequence (P11712 whole entry): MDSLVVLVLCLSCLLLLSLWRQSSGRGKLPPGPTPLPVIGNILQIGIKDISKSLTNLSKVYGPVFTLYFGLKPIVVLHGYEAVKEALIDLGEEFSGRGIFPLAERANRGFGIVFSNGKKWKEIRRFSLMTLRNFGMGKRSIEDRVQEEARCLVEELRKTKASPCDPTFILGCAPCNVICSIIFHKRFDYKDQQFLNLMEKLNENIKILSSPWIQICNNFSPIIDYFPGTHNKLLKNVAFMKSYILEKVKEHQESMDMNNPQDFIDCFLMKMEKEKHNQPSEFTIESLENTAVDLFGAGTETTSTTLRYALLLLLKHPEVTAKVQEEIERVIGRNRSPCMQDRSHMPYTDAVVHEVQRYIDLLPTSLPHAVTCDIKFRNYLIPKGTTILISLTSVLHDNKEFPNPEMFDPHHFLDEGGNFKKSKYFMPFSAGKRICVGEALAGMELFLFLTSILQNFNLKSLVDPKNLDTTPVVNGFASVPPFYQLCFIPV

[7] = long-term administration; cited from earlier work
cocaine addiction = cocaine addiction in humans, 9-week double-blind trial; cited from earlier work
addiction = conditions: cocaine, nicotine, methamphetamine, heroin, and alcohol; cited from earlier work

| Structure (SMILES) | times more potent than vigabatrin in reducing the release of dopamine in the NAcc [1] [times] | inhibition of the activity of the hERG channel (hERG channel) | inactivation or inhibition of Asp-AT [2] | inhibition or induction of CYP 2C19 (CYP2C19) | KI (inactivation) [3] [µM] | cocaine-induced increases in striatal dopamine (striatal dopamine levels) | inhibition or induction of CYP 2C8 (CYP2C8) | inhibition or induction of CYP 1A (CYP1A) | duration of spasm suppression versus vigabatrin (infantile spasms) | inactivation or inhibition of Ala-AT [4] | inhibition or induction of CYP 2D6 (CYP2D6) | inhibition or induction of CYP 2B6 (CYP2B6) | hippocampal metabolism (cocaine-induced) [5] | inhibition or induction of CYP 3A (CYP3A) | margin of safety versus vigabatrin [6] | retinal toxicity liability versus vigabatrin [6] | inhibition or induction of CYP 2C9 (CYP2C9) | epilepsy patients with permanent vision loss [7] | patients achieving abstinence (cocaine addiction) | treatment of addiction in animal models (addiction) |
| --- | --- | --- | --- | --- | --- | --- | --- | --- | --- | --- | --- | --- | --- | --- | --- | --- | --- | --- | --- | --- |
| N[C@H]1C[C@@H](C(=O)O)CC1=C(F)F [CPP-115, (1S,3S)-3-amino-4-difluoromethylenyl-1-cyclopentanoic acid] | > 300 | does not inhibit | not to inactivate or inhibit | does not inhibit or induce | 116 | blocked | does not inhibit or induce | does not inhibit or induce | longer spasm suppression | not to inactivate or inhibit | does not inhibit or induce | does not inhibit or induce | did not completely block | does not inhibit or induce | much larger | considerably lower | does not inhibit or induce |  |  |  |
| C=CC(N)CCC(=O)O (stereo not shown) [vigabatrin] |  |  |  |  |  | blocked |  |  |  |  |  |  | did not completely block |  |  |  |  | 25-40% | up to 28% | successful |
